Measurements reported in patent publication US20260241049A1, “Radiopharmaceutical Compositions Targeting Glypican-3 and Uses Thereof” (RayzeBio, Inc., priority 2023, published 2026).
Starred links: 1 amine or outer side, 2 acyl side, 3 side chain; linkers in the order of their positions; H or OH if unused. Positions of bridges follow the written chain, without caps; N, C: chain ends. Non-standard residues stand in square brackets, D forms with d. Residues, ends and D or L forms follow the SMILES beside them. Primed or numbered codes have the meaning given here. MeHseMe″ = (2S)-4-methoxy-2-(methylamino)butanoic acid (N-methyl-O-methyl-L-homoserine), COCC[C@@H](C(=O)[*:2])N(C)[*:1]; Phe(4-(1-Me-pyrazol-4-yl)) = Cn1cc(-c2ccc(C[C@H](N)C(=O)O)cc2)cn1; NMeAla(isoquinolin-7-yl) = CN[C@@H](Cc1ccc2ccncc2c1)C(=O)O; 3Pal(6-Ph) = N[C@@H](Cc1ccc(-c2ccccc2)nc1)C(=O)O; Phe(4-COOH) = N[C@@H](Cc1ccc(C(=O)O)cc1)C(=O)O; NMe2Nal = CN[C@@H](Cc1ccc2ccccc2c1)C(=O)O; NMeI = CC[C@H](C)[C@H](NC)C(=O)O; NMeQ = CN[C@@H](CCC(N)=O)C(=O)O; NMehCys = CN[C@@H](CCS)C(=O)O; NMehSer = CN[C@@H](CCO)C(=O)O; NMeK = CN[C@@H](CCCCN)C(=O)O; NMeC = CN[C@@H](CS)C(=O)O; CO = O=C([*:1])[*:2]

Experiments:
[1] = system: HepG2 (glypican 3 expressed on the cell surface); test: Flow cytometry, biotinylated peptides followed by SAPE, HepG2; assay type: cell-based, human; details: biotinylated peptide at 100 nM followed by SAPE (1:250), on ice; versus SK-Hep1 negative control; FIG. 1
Procedure: (§1) HepG2 (human hepatocellular carcinoma) and SK-HEP-1 (human hepatic adenocarcinoma) cell lines were purchased from the American Type Culture Collection (ATCC; Manassas, VA). Huh-7 (human hepatoblastoma) cell line was purchased from the Japanese Collection of Research Bioresources Cell Bank (JCRB Cell Bank, Osaka, Japan). HepG2 and SK-HEP-1 were grown in EMEM (FUJIFILM Wako Pure Chemical Corporation, 055-08975) with 10% fetal bovine serum (FBS; Thermo Fisher Scientific, 10270106) and 0.1% gentamicin (NACALAI TESQUE, 11980-14). Huh-7 was grown in DMEM (Thermo Fisher Scientific, 10567014) with 10% FBS and 0.1% gentamicin.
(§2) HepG2, SK-HEP-1 and Huh-7 cells were collected from the culture dish and stained with biotinylated peptides at 100 nM followed by Streptavidin, R-Phycoerythrin Conjugate (SAPE: Thermo Fisher Scientific, S866) (1:250). Cells were washed with phosphate-buffered saline (PBS; FUJIFILM Wako Pure Chemical Corporation, 043-29791) containing 0.5% FBS after addition of peptides or SAPE. All staining procedures were performed on ice. Samples were measured using CytoFLEX S (Beckman Coulter) and CytExpert ver2.4 software. All data were analyzed using FlowJo™ (BD Bioscience). For discrimination of live cells from dead cells, SYTOX™ Blue Dead Cell Stain (Thermo Fisher Scientific, S34857) (1:5000) was added prior to measurement.

[2] = system: Huh-7 (glypican 3 expressed on the cell surface); test: Flow cytometry, biotinylated peptides followed by SAPE, Huh-7; assay type: cell-based, human; details: biotinylated peptide at 100 nM followed by SAPE (1:250), on ice; versus SK-Hep1 negative control; FIG. 2
Procedure: as §1, §2

[3] = target: T1, human Glypican3 (Homo sapiens, UniProt P51654); test: SPR binding to Glypican-3, Method B-1 (Glypican3 immobilized on CM3 chip, Biacore T200); details: SPR method B-1
T1 construct: purchased R&D systems 2119-GP
Procedure: A CM3 sensor chip (Cytiva) was inserted into a Biacore T200 (Cytiva), primed three times with a running buffer: HBS-P+, pH 7.4 (Cytiva), and equilibrated at a flow rate of 30 μL/min. Ligand immobilization was performed at a flow rate of 10 μL/min. 50 μL each of 60 mM EDC solution (Cytiva) and 650 mM NHS solution (Cytiva) were mixed, and then reacted at a flow rate of 10 μL/min for 420 seconds, 150 μL of 0.2 μM human Glypican3 (R&D systems, catalog number: 2119-GP) solution which was prepared by diluting with 10 mM acetic acid solution (pH 5.0), was reacted at a flow rate of 10 μL/min for 420 seconds, and Glypican3 was immobilized on the CM3 sensor chip. After immobilization, 1.0 M ethanolamine aqueous solution (Cytiva) was allowed to react for 420 seconds at a flow rate of 10 μL/min for capping. A peptide lysate prepared to 10 mM in DMSO solution was diluted with running buffer to a final concentration of 10 μM peptide lysate. After that, 5 serial dilution series (100 nM, 50 nM, 25 nM, 10 nM, 5 nM) of peptide solutions were prepared. Using the above samples, peptide kinetics for Glypican3 was obtained by SPR measurement. Kinetics evaluation of Glypican3 was performed by SPR measurements at a flow rate of 10 μL/min, setting the association time to 120 seconds and the disassociation time to 600 seconds.
(§3) The obtained data by Method B-1, Method B-2, Method B-3 and Method B-4 were analyzed by follow. Single Cycle Kinetics was used as the kinetics evaluation model, and curve fitting was performed using Biacore T200 Evaluation Software Version 3.0 (Cytiva). The obtained sensorgram was subjected to curve fitting by the method of least squares and obtained KD values of the macrocyclic peptides in this disclosure for Glypican 3 protein are shown in Table 18.

[4] = target: Human Glypican3-Fc (Homo sapiens, UniProt P51654); test: SPR binding to Glypican-3, Method B-4 (Glypican3-Fc on Protein A chip, peptide 40 nM); details: SPR method B-4, peptide 40 nM
Procedure: A Protein A sensor chip (Cytiva) was inserted into a Biacore T200 (Cytiva), priming was performed three times with a running buffer: HBS-P+, pH 7.4 (Cytiva), and equilibration was carried out at a flow rate of […]. Gly pican3-Fc was allowed to react for 60 seconds at a flow rate of 10 μL/min. After capturing human Glypican3-Fc, a peptide solution prepared to 1 mM in DMSO solution was diluted with a running buffer to a final concentration of 1 μM. After that, the peptide solution was diluted to 40 nM in a similar manner. Using the above samples, peptide kinetics for Glypican3 was obtained by SPR measurement. Kinetics evaluation of Glypican3 was performed by SPR measurements at a flow rate of 30 μL/min. setting the association time to 120 seconds and the disassociation time to 600 seconds.
as §3

[5] = system: HCC patient; details: cited from earlier work
[6] = system: late-stage liver cancer patients; details: phase II clinical trial, 185 late-stage liver cancer patients; cited from earlier work
[7] = target: Human Glypican3-Fc (ACRO Biosystems, GP3-H5258) (human) (UniProt P51654); test: SPR (Biacore T200), Method B-3: Glypican3-Fc captured on Protein A chip, peptide as analyte
[8] = target: T2, Human Glypican3-Fc (ACRO Biosystems, GP3-H5258) (human, UniProt P51654 25-559); test: SPR (Biacore T200), Method B-4: Glypican3-Fc captured on Protein A chip, peptide at 40 nM
T2 construct: Bought fusion protein, captured in Methods B-2, B-3 and B-4; Catalogue number is printed only in Method B-2; not shown: Fc part of the bought fusion
Procedure: Using the above samples, peptide kinetics for Glypican3 was obtained by SPR measurement.
The obtained data by Method B-1, Method B-2, Method B-3 and Method B-4 were analyzed by follow. Single Cycle Kinetics was used as the kinetics evaluation model, and curve fitting was performed using Biacore T200 Evaluation Software Version 3.0 (Cytiva).

CC[C@H](C)[C@@H]1NC[C@H](Cc2ccc(C(=O)O)cc2)NC(=O)[C@H](CCC(N)=O)N(C)C(=O)[C@H](CC(=O)O)NC(=O)[C@H]([C@@H](C)CC)N(C)C(=O)[C@H](CCCCNC(C)=O)N(C)C(=O)CSC[C@@H](C(=O)NCC(=O)NCCOCCOCCOCCOCCOCCOCCOCCOCCOCCOCCC(=O)N[C@@H](CCCCNC(=O)CCCC[C@@H]2SC[C@@H]3NC(=O)N[C@@H]32)C(N)=O)N(C)C(=O)[C@H](Cc2ccc(-c3ccccc3)nc2)NC(=O)CNC(=O)[C@H](Cc2ccc3ccncc3c2)N(C)C(=O)[C@H](Cc2ccc(O)cc2)NC(=O)[C@H]([C@@H](C)CC)NC1=O [PLB-60]
comparative staining of HepG2 cells (flow cytometry) [1]: specific binding
comparative staining of Huh-7 cells (flow cytometry) [2]: specific binding

CC[C@H](C)[C@@H]1NC(=O)[C@H](Cc2ccc(C(=O)O)cc2)NC(=O)[C@H](CCC(N)=O)N(C)C(=O)[C@H](CCCCNC(C)=O)NC(=O)[C@H](CCC(N)=O)N(C)C(=O)[C@H](CCC(N)=O)N(C)C(=O)CSC[C@@H](C(N)=O)N(C)C(=O)[C@H](Cc2ccc(-c3cnn(C)c3)cc2)NC(=O)CNC(=O)[C@H](Cc2ccc3ccccc3c2)N(C)C(=O)[C@H](Cc2ccc(C(=O)O)cc2)NC(=O)[C@H]([C@@H](C)CC)NC1=O [Conjugate 2-11] ({CH2CO}-[NMeQ][NMeQ]K(Ac)[NMeQ][Phe(4-COOH)]II[Phe(4-COOH)][NMe2Nal]G[Phe(4-(1-Me-pyrazol-4-yl))][NMeC]-NH2; thioether N-12)
Kd [3]: 2.5 nM

CC[C@H](C)[C@@H]1NC(=O)[C@H](Cc2ccc(C(=O)O)cc2)NC(=O)[C@H](CCC(N)=O)N(C)C(=O)[C@H](CC(=O)O)NC(=O)[C@H](CCOC)N(C)C(=O)[C@H](CCCCN)N(C)C(=O)CSC[C@@H](C(N)=O)N(C)C(=O)[C@H](Cc2ccc(-c3ccccc3)nc2)NC(=O)CNC(=O)[C@H](Cc2ccc3ccncc3c2)N(C)C(=O)[C@H](Cc2ccc(O)cc2)NC(=O)[C@H]([C@@H](C)CC)NC1=O [Conjugate 2-61] ({CH2CO}-[NMeK][NMehSer](Me)D[NMeQ][Phe(4-COOH)]IIY[NMeAla(isoquinolin-7-yl)]G[3Pal(6-Ph)][NMeC]-NH2; thioether N-12)
Kd [4]: 0.23 nM

CC[C@H](C)[C@@H]1NC(=O)[C@H](Cc2ccc(C(=O)O)cc2)NC(=O)[C@H](CCC(N)=O)N(C)C(=O)[C@H](CC(=O)O)NC(=O)[C@H]([C@@H](C)CC)N(C)C(=O)[C@H](CCCCNC(C)=O)N(C)C(=O)CSC[C@@H](C(N)=O)N(C)C(=O)[C@H](Cc2ccc(-c3cnn(C)c3)cc2)NC(=O)CNC(=O)[C@H](Cc2ccc3ccccc3c2)N(C)C(=O)[C@H](Cc2ccc(C(=O)O)cc2)NC(=O)[C@H]([C@@H](C)CC)NC1=O [Conjugate 2-2] ({CH2CO}-[NMeK](Ac)[NMeI]D[NMeQ][Phe(4-COOH)]II[Phe(4-COOH)][NMe2Nal]G[Phe(4-(1-Me-pyrazol-4-yl))][NMeC]-NH2; thioether N-12)
Kd [3]: 1.5 nM

Codrituzumab
tolerance in phase I clinical trials ([5]; phase I clinical trials): good immune tolerance
anti-tumour effect in HCC patient ([5]; phase I, advanced hepatocellular carcinoma): anti-tumour effect
therapeutic efficacy compared with the control group [6]: not impressive

CC[C@H](C)[C@@H]1NC(=O)[C@H]([C@@H](C)OC)NC(=O)[C@H](Cc2ccc(C(=O)O)cc2)NC(=O)[C@H](CCC(N)=O)N(C)C(=O)[C@H](CC(=O)O)NC(=O)[C@H](CCC(N)=O)N(C)C(=O)[C@H](CCC(N)=O)N(C)C(=O)SCC[C@@H](C(N)=O)N(C)C(=O)[C@H](Cc2ccc(-c3cnn(C)c3)cc2)NC(=O)CNC(=O)[C@H](Cc2ccc3ccccc3c2)N(C)C(=O)[C@H](Cc2ccc(C(=O)O)cc2)NC1=O [Conjugate 2-15] ([NMeQ][NMeQ]D[NMeQ][Phe(4-COOH)]T(Me)I[Phe(4-COOH)][NMe2Nal]G[Phe(4-(1-Me-pyrazol-4-yl))][NMehCys]-NH2; linker N-12 via CO)
Kd [3]: 1.8 nM

CC[C@H](C)[C@@H]1NC(=O)[C@H](Cc2ccc(C(=O)O)cc2)NC(=O)[C@H](CCC(N)=O)N(C)C(=O)[C@H](CCC(N)=O)NC(=O)[C@H]([C@@H](C)CC)N(C)C(=O)[C@H](CCCCNC(C)=O)N(C)C(=O)CSC[C@@H](C(N)=O)N(C)C(=O)[C@H](Cc2ccc(-c3cnn(C)c3)cc2)NC(=O)CNC(=O)[C@H](Cc2ccc3ccccc3c2)N(C)C(=O)[C@H](Cc2ccc(C(=O)O)cc2)NC(=O)[C@H]([C@@H](C)CC)NC1=O [Conjugate 2-3] ({CH2CO}-[NMeK](Ac)[NMeI]Q[NMeQ][Phe(4-COOH)]II[Phe(4-COOH)][NMe2Nal]G[Phe(4-(1-Me-pyrazol-4-yl))][NMeC]-NH2; thioether N-12)
Kd [3]: 1.2 nM

B1: Macrocyclic peptide of Example 2-33 (SEQ ID No. 50) (peptide)
peptide: XSDXFTIXFGXC
modifications: not fully specified; MeDapCOpipzaa-MeHseMe-D-MeDapCOpipzaa-F4COO-TMe-I-Yae-MeNal2-G-3Py6Ph-MeC-NH2; thioether ring from N-terminal acetyl to MeC12
Kd [7]: 0.3 nM

B2: Macrocyclic peptide of Example 2-61 (SEQ ID No. 72) (peptide)
peptide: {CH2CO}-[NMeK][MeHseMe″]D[NMeQ][Phe(4-COOH)]IIY[NMeAla(isoquinolin-7-yl)]G[3Pal(6-Ph)][NMeC]-NH2
modifications: thioether N-12
SMILES: CC[C@H](C)[C@@H]1NC(=O)[C@H](Cc2ccc(C(=O)O)cc2)NC(=O)[C@H](CCC(N)=O)N(C)C(=O)[C@H](CC(=O)O)NC(=O)[C@H](CCOC)N(C)C(=O)[C@H](CCCCN)N(C)C(=O)CSC[C@@H](C(N)=O)N(C)C(=O)[C@H](Cc2ccc(-c3ccccc3)nc2)NC(=O)CNC(=O)[C@H](Cc2ccc3ccncc3c2)N(C)C(=O)[C@H](Cc2ccc(O)cc2)NC(=O)[C@H]([C@@H](C)CC)NC1=O
Kd [8]: 0.23 nM

B3: Macrocyclic peptide of Example 2-37 (SEQ ID No. 54) (peptide)
peptide: XSDXFTIXFGXC
modifications: not fully specified; MeDapCOpipzaa-MeHseMe-D-MeDapCOpipzaa-F4COO-TMe-I-Yae-MeNal27N-G-3Py6Ph-MeC-NH2; thioether ring from N-terminal acetyl to MeC12
Kd [7]: 1 nM
